According to ChEMBL document CHEMBL5543109, “Novel β-Hairpin Antimicrobial Peptide Containing the β-Turn Sequence of -NG- and the Tryptophan Zippers Facilitate Self-Assembly into Nanofibers, Exhibiting Excellent Antimicrobial Performance” (J Med Chem, 2024):
Values after ≈ are worked out from the molar mass of the structure shown. Active and inactive are the calls of the source. No cut-off for these calls is given here.

Key:
Staphylococcus aureus [1] = test: Additive antibacterial activity against Staphylococcus aureus 125 assessed as fractional inhibitory concentration index incubated for 18 hrs in presence of ciprofloxacin by checkerboard assay; type: functional
Staphylococcus aureus [2] = test: Antibacterial activity against Staphylococcus aureus infected in BALB/c mouse systemic infection model assessed as reduction in liver bacterial load at 5 to 10 mg/kg, ip measured after 8 hrs; type: functional, organism-based; conditions: dose 5-10 mg/kg
Staphylococcus aureus [3] = test: Antibacterial activity against Staphylococcus aureus 794 infected in BALB/c mouse skin wound infection model assessed as reduction in TNFalpha level at 1 mg/ml, ip pre-infected with bacteria for 24 hrs followed by compound addition and measured after 13 days post infection in presence of vancomycin; type: functional, organism-based; conditions: time 12.0 day
Staphylococcus aureus [4] = test: Induction of morphological change in Staphylococcus aureus assessed as morphological distortion at 2 times MIC incubated for 30 mins by SEM analysis; type: functional, organism-based
[5] = Acute toxicity in mouse assessed as hepatocyte necrosis at 230.5 mg/kg, ip by H and E staining based assay; type: organism-based; conditions: hepatocytes
Pseudomonas aeruginosa [6] = test: Antibacterial activity against Pseudomonas aeruginosa incubated for 18 hrs in presence of NH4Cl by broth microdilution method; type: functional, organism-based
Pseudomonas aeruginosa [7] = test: Induction of morphological change in Pseudomonas aeruginosa assessed as pore formation at 2 times MIC incubated for 30 mins by SEM analysis; type: functional, organism-based
Staphylococcus aureus [8] = test: Synergistic antibacterial activity against Staphylococcus aureus 794 assessed as fractional inhibitory concentration index incubated for 18 hrs in presence of bacitracin by checkerboard assay; type: functional
Escherichia coli [9] = test: Synergistic antibacterial activity against Escherichia coli assessed as fractional inhibitory concentration index incubated for 18 hrs in presence of rifampin by checkerboard assay; type: functional
[10] = Self-assembly property of compound in PBS assessed as beta-sheet formation by measuring particle size at 50 uM by […]; type: physicochemical; conditions: buffer
Cell membrane [11] = test: Induction of cell membrane disruption in Staphylococcus aureus assessed as PI uptake incubated for 2 hrs by PI staining based confocal laser scanning microscopy; type: cell membranes
Cell membrane [12] = test: Induction of cell membrane disruption in Escherichia coli assessed as PI uptake at 2 times MIC incubated for 2 hrs by PI staining based flow cytometry analysis (reference value: 11.9%); type: cell membranes
Staphylococcus aureus [13] = test: Synergistic antibacterial activity against Staphylococcus aureus 794 assessed as fractional inhibitory concentration index incubated for 18 hrs in presence of rifampin by checkerboard assay; type: functional
Staphylococcus aureus [14] = test: Synergistic antibacterial activity against methicillin resistant Staphylococcus aureus assessed as fractional inhibitory concentration index incubated for 18 hrs in presence of cefotaxime by checkerboard assay; type: functional
[15] = Acute toxicity in mouse assessed as mortality rate at 300 mg/kg, ip by karber method; type: organism-based; conditions: in vivo, read-out: Activity
Staphylococcus aureus [16] = test: Additive antibacterial activity against Staphylococcus aureus assessed as fractional inhibitory concentration index incubated for 18 hrs in presence of ciprofloxacin by checkerboard assay; type: functional
Staphylococcus aureus [17] = test: Induction of morphological change in Staphylococcus aureus assessed as bacterial lysis at 2 times MIC incubated for 30 mins by SEM analysis; type: functional, organism-based
Staphylococcus aureus [18] = test: Antibacterial activity against Staphylococcus aureus at 2 times MIC preincubated for 1 hr with chymotrypsin followed by enzyme inactivation and bacterial addition and measured after 18 hrs; type: functional; conditions: time 19 hrs
Staphylococcus aureus [19] = test: Antibacterial activity against Staphylococcus aureus incubated for 18 hrs in presence of MgCl2 by broth microdilution method; type: functional, organism-based
Staphylococcus aureus [20] = test: Antibacterial activity against Staphylococcus aureus infected in BALB/c mouse systemic infection model assessed as reduction in lung bacterial load at 5 to 10 mg/kg, ip measured after 8 hrs; type: functional, organism-based; conditions: dose 5-10 mg/kg
Pseudomonas aeruginosa [21] = test: Synergistic antibacterial activity against Pseudomonas aeruginosa assessed as fractional inhibitory concentration index incubated for 18 hrs in presence of polymyxin B by checkerboard assay; type: functional
Staphylococcus aureus [22] = test: Antibacterial activity against rifampicin resistant Staphylococcus aureus incubated for 18 hrs by broth microdilution method; type: functional
Pseudomonas aeruginosa [23] = test: Antibacterial activity against Pseudomonas aeruginosa incubated for 18 hrs in presence of MgCl2 by broth microdilution method; type: functional, organism-based
Pseudomonas aeruginosa [24] = test: Induction of morphological change in Pseudomonas aeruginosa assessed as bacterial deformation at 2 times MIC incubated for 30 mins by SEM analysis; type: functional, organism-based
Staphylococcus aureus [25] = test: Additive antibacterial activity against Staphylococcus aureus 794 assessed as fractional inhibitory concentration index incubated for 18 hrs in presence of kanamycin by checkerboard assay; type: functional
Cell membrane [26] = test: Induction of outer membrane permeabilization in Escherichia coli at 1/2 MIC measured immediately by NPN-dye based assay; type: cell membranes
Staphylococcus aureus [27] = test: Additive antibacterial activity against methicillin resistant Staphylococcus aureus 113 assessed as fractional inhibitory concentration index incubated for 18 hrs in presence of cefotaxime by checkerboard assay; type: functional
[28] = Self-assembly property of compound in PBS assessed as beta-sheet nanofibers formation incubated for 1 hr by Thioflavin T based fluorescence spectrophotometer analysis; type: physicochemical; conditions: buffer, dose 0.5-1.5 µM
Staphylococcus aureus [29] = test: Antibacterial activity against Staphylococcus aureus incubated for 18 hrs in presence of CaCl2 by broth microdilution method; type: functional, organism-based
Staphylococcus aureus [30] = test: Additive antibacterial activity against methicillin resistant Staphylococcus aureus 113 assessed as fractional inhibitory concentration index incubated for 18 hrs in presence of streptomycin by checkerboard assay; type: functional
Staphylococcus aureus [31] = test: Antibacterial activity against Staphylococcus aureus ATCC 25923 infected in BALB/c mouse skin wound infection model assessed as reduction in wound bacterial load at 1 mg/ml, ip administered at 1 hr interval for total 6 treatment and measured after 1 hr post last dose; type: functional, organism-based; conditions: time 7.0 hrs
Staphylococcus aureus [32] = test: Antibacterial activity against Staphylococcus aureus S794 incubated for 18 hrs by broth microdilution method; type: functional
[33] = Elimination half life in Sprague-Dawley rat at 1 mg/kg, iv measured upto 120 mins by LC-MS analysis; type: ADME, organism-based; conditions: in vivo, read-out: beta t1/2
Staphylococcus aureus [34] = test: Additive antibacterial activity against Staphylococcus aureus 125 assessed as fractional inhibitory concentration index incubated for 18 hrs in presence of kanamycin by checkerboard assay; type: functional
Klebsiella pneumoniae [35] = test: Antibacterial activity against Klebsiella pneumoniae ATCC 700603 incubated for 18 hrs by broth microdilution method; type: functional
Cell membrane [36] = test: Induction of inner membrane permeabilization in Escherichia coli ML-35 at 1/2 times MIC measured every 5 mins for 120 mins by ONPG dye based assay; type: cell membranes
Staphylococcus aureus [37] = test: Additive antibacterial activity against methicillin resistant Staphylococcus aureus 75 assessed as fractional inhibitory concentration index incubated for 18 hrs in presence of ciprofloxacin by checkerboard assay; type: functional
Klebsiella pneumoniae [38] = test: […] antibacterial activity against Klebsiella pneumoniae assessed as fractional inhibitory concentration index incubated for 18 hrs in presence of polymyxin B by checkerboard assay; type: functional
Staphylococcus aureus [39] = test: Antibacterial activity against Staphylococcus aureus 794 infected in BALB/c mouse skin wound infection model assessed as wound healing by measuring detached scab at 1 mg/ml, ip pre-infected with bacteria for 24 hrs followed by compound addition and measured on day 7; type: functional, organism-based; conditions: time 7.0 day
Staphylococcus aureus [40] = test: Synergistic antibacterial activity against methicillin resistant Staphylococcus aureus assessed as fractional inhibitory concentration index incubated for 18 hrs in presence of streptomycin by checkerboard assay; type: functional
Escherichia coli [41] = test: Antibacterial activity against Escherichia coli ATCC 25922 incubated for 18 hrs by broth microdilution method; type: functional
Staphylococcus aureus [42] = test: Additive antibacterial activity against Staphylococcus aureus 794 assessed as fractional inhibitory concentration index incubated for 18 hrs in presence of ciprofloxacin by checkerboard assay; type: functional

SMILES: NCCCC[C@@H](NC(=O)[C@H](N)Cc1c[nH]c2ccccc12)C(=O)N[C@H](Cc1c[nH]c2ccccc12)C(=O)N[C@H](CCCCN)C(=O)N[C@H](Cc1c[nH]c2ccccc12)C(=O)N[C@@H](CC(N)=O)C(=O)NCC(=O)N[C@H](Cc1c[nH]c2ccccc12)C(=O)N[C@H](CCCCN)C(=O)N[C@H](Cc1c[nH]c2ccccc12)C(=O)N[C@H](CCCCN)C(=O)N[C@H](Cc1c[nH]c2ccccc12)C(N)=O
- fractional inhibitory concentration index (FICI) (Staphylococcus aureus [1]): 1
- Activity (Staphylococcus aureus [2]): Active
- Activity (Staphylococcus aureus [3]): Active
- Activity (Staphylococcus aureus [4]): Active
- Activity [5]: Toxic
- Activity (Pseudomonas aeruginosa [6]): Active
- Activity (Pseudomonas aeruginosa [7]): Active
- fractional inhibitory concentration index (FICI) (Staphylococcus aureus [8]): 0.313
- fractional inhibitory concentration index (FICI) (Escherichia coli [9]): 0.375
- Activity [10]: 874.9 nm
- Activity (Cell membrane [11]): Dose-Dependent Effect
- Activity (Cell membrane [12]): 86.2%
- fractional inhibitory concentration index (FICI) (Staphylococcus aureus [13]): 0.188
- fractional inhibitory concentration index (FICI) (Staphylococcus aureus [14]): 0.313
- mortality [15]: 100%
- fractional inhibitory concentration index (FICI) (Staphylococcus aureus [16]): 1
- Activity (Staphylococcus aureus [17]): Active
- Activity (Staphylococcus aureus [18]): 100%
- Activity (Staphylococcus aureus [19]): Active
- Activity (Staphylococcus aureus [20]): Active
- fractional inhibitory concentration index (FICI) (Pseudomonas aeruginosa [21]): 0.188
- MIC (Staphylococcus aureus [22]): 8 µM (≈ 14.5 µg/mL)
- Activity (Pseudomonas aeruginosa [23]): Active
- Activity (Pseudomonas aeruginosa [24]): Active
- fractional inhibitory concentration index (FICI) (Staphylococcus aureus [25]): 0.563
- Activity (Cell membrane [26]): 40%
- fractional inhibitory concentration index (FICI) (Staphylococcus aureus [27]): 0.563
- Activity [28]: Dose-Dependent Effect
- Activity (Staphylococcus aureus [29]): Active
- fractional inhibitory concentration index (FICI) (Staphylococcus aureus [30]): 0.563
- Activity (Staphylococcus aureus [31]): Active
- MIC (Staphylococcus aureus [32]): 8 µM (≈ 14.5 µg/mL)
- half-life [33]: 11.4 min
- fractional inhibitory concentration index (FICI) (Staphylococcus aureus [34]): 0.563
- MIC (Klebsiella pneumoniae [35]): 8 µM (≈ 14.5 µg/mL)
- Activity (Cell membrane [36]): inactive
- fractional inhibitory concentration index (FICI) (Staphylococcus aureus [37]): 0.563
- fractional inhibitory concentration index (FICI) (Klebsiella pneumoniae [38]): 0.375
- Activity (Staphylococcus aureus [39]): Active
- fractional inhibitory concentration index (FICI) (Staphylococcus aureus [40]): 0.5
- MIC (Escherichia coli [41]): 8 µM (≈ 14.5 µg/mL)
- fractional inhibitory concentration index (FICI) (Staphylococcus aureus [42]): 0.563
